Some test systems named below: MDA-N; OVCAR-4; A498; OVCAR-8; SK-MEL-2; TK-10; NCI-H460; UACC-257; BT-549; OVCAR-3; RXF 393; EKVX; KM12; HL-60; UACC-62; U-251; SF-268; 786-0; IGROV-1.
What all share (assay): DTP human tumour cell line panel, 48 h

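Step 1: Grow cells in 96-well plates. Step 2: Expose to compound for 48 hours at 5 concentrations. Step 3: Interpolate endpoints linearly; if unreached, use highest concentration. The concentration for 50% growth inhibition is given as GI50.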 Active and inactive are the calls of the source. Rule as the data show it: active = GI50 up to about 1.1 µM and inactive = higher. Bounds are passed on as bounds.

With `Cc1occc1C(=S)Nc1ccc(Cl)c(C(=O)OC(C(C)C)C(C)C)c1`, the GI50 is 12.1 µM (inactive) in the assay with MDA-N; 14.7 µM (inactive) with OVCAR-4; 13.6 µM (inactive) in the assay on A498; 13.3 µM (inactive) with OVCAR-8; 16.5 µM (inactive) with SK-MEL-2; 15.3 µM (inactive) in the assay with TK-10. In addition, the GI50 with NCI-H460 was 13.6 µM (inactive); in the assay on UACC-257, 4.85 µM (inactive); with BT-549, 16.6 µM (inactive); in the assay on OVCAR-3, 13.4 µM (inactive); in the assay with RXF 393, 13.3 µM (inactive); with EKVX, 8 µM (inactive). For the same molecule, the GI50 is 12.5 µM (inactive) in the assay with KM12; 10.8 µM (inactive) with HL-60; 10.8 µM (inactive) in the assay with UACC-62; 10.8 µM (inactive) in the assay with U-251; 18.5 µM (inactive) with SF-268; 13.7 µM (inactive) with 786-0. Also, the GI50 in the assay with IGROV-1 is 15.2 µM (inactive).
Turning to `O=C(O)COc1c(Cl)cc(Cl)c2cccnc12`, the GI50 in the assay with MDA-N, with OVCAR-4, in the assay on A498, in the assay on OVCAR-8, in the assay on SK-MEL-2 and in the assay on TK-10 was > 100 µM (inactive) each time. The GI50 with NCI-H460, in the assay with UACC-257, in the assay with BT-549, in the assay on OVCAR-3, in the assay with RXF 393 and in the assay with EKVX was > 100 µM (inactive) each time. In addition, the GI50 in the assay on KM12, in the assay with HL-60, with UACC-62, in the assay with U-251, with SF-268 and with 786-0 was > 100 µM (inactive) throughout. Further, in the assay on IGROV-1, the GI50 was 96.4 µM (inactive).
In the case of `C(CCc1nnc2c(n1)CCCC2)Cc1nnc2c(n1)CCCC2`, the GI50 in the assay with MDA-N is 88.3 µM (inactive); in the assay on OVCAR-4, > 100 µM (inactive); in the assay with A498, > 100 µM (inactive); in the assay on OVCAR-8, > 100 µM (inactive); in the assay with SK-MEL-2, > 100 µM (inactive); in the assay with TK-10 it was > 100 µM (inactive). In addition, the GI50 with NCI-H460, with BT-549, in the assay on OVCAR-3, in the assay on RXF 393, with EKVX and with KM12 was > 100 µM (inactive) each time. Moreover, the GI50 in the assay on HL-60, with UACC-62, with U-251, with SF-268, in the assay with 786-0 and with IGROV-1 was > 100 µM (inactive) each time.
Regarding `COc1ccc(-c2cc(-c3ccccc3)nc(N)n2)c(O)c1`, the GI50 with MDA-N was 4.55 µM (inactive); in the assay with OVCAR-4, > 74.6 µM (inactive); in the assay with A498, > 100 µM (inactive); with OVCAR-8, 8.69 µM (inactive); in the assay on SK-MEL-2, 7.08 µM (inactive); with TK-10, > 100 µM (inactive). Moreover, the GI50 in the assay on NCI-H460 is 5.04 µM (inactive); in the assay on UACC-257, > 100 µM (inactive); with BT-549, 1.7 µM (inactive); with OVCAR-3, > 49.5 µM (inactive); with RXF 393, > 100 µM (inactive); in the assay with EKVX, > 24.9 µM (inactive). Moreover, the GI50 was 4.67 µM (inactive) in the assay on KM12; 2.02 µM (inactive) with HL-60; > 28.9 µM (inactive) in the assay with UACC-62; 12.6 µM (inactive) in the assay on U-251; 17.8 µM (inactive) in the assay with SF-268; > 100 µM (inactive) in the assay on 786-0. In the assay on IGROV-1, the GI50 was 10.6 µM (inactive).
In the case of `O=c1[nH][nH]c(=O)n1Cc1ccccc1Cn1c(=O)[nH][nH]c1=O`, the GI50 in the assay with MDA-N, in the assay on A498, in the assay on OVCAR-8, in the assay on SK-MEL-2, in the assay on TK-10 and in the assay on NCI-H460 was > 100 µM (inactive) in each case. Also, the GI50 with UACC-257, in the assay on BT-549, in the assay on OVCAR-3, with RXF 393, with EKVX and in the assay on KM12 was > 100 µM (inactive) throughout. Besides, the GI50 in the assay on HL-60, in the assay on UACC-62, with U-251, in the assay on SF-268, in the assay on 786-0 and in the assay with IGROV-1 was > 100 µM (inactive) each time.
For `O=C1CCc2cc3c(cc21)CC1(Cc2cc4c(cc2C1)CCCC4)C3`, the GI50 is 4.82 µM (inactive) in the assay with MDA-N; 29 µM (inactive) in the assay with OVCAR-4; 61.5 µM (inactive) with A498; > 100 µM (inactive) in the assay on OVCAR-8; > 100 µM (inactive) with SK-MEL-2; > 100 µM (inactive) in the assay on TK-10. Further, the GI50 in the assay with NCI-H460 is 41.4 µM (inactive); in the assay on UACC-257, 35.6 µM (inactive); in the assay on BT-549, > 100 µM (inactive); in the assay with OVCAR-3, 53.6 µM (inactive); with RXF 393, 16 µM (inactive); in the assay with EKVX, > 100 µM (inactive). The GI50 in the assay with KM12 is 51.2 µM (inactive); in the assay on HL-60, 27.9 µM (inactive); with UACC-62, 39.9 µM (inactive); in the assay with U-251, 45.9 µM (inactive); in the assay with SF-268 it was > 100 µM (inactive); in the assay on IGROV-1 it was 97.5 µM (inactive).
Turning to `CCOC(=O)c1cc(Sc2ccc(N)c(C(=O)OCC)c2)ccc1N`, the GI50 with MDA-N is 5.43 µM (inactive); in the assay with OVCAR-4, 17.8 µM (inactive); in the assay with A498, 21.6 µM (inactive); with OVCAR-8 it was 20.7 µM (inactive); in the assay on SK-MEL-2 it was > 100 µM (inactive); in the assay with NCI-H460, 78.2 µM (inactive). Also, the GI50 is > 100 µM (inactive) in the assay with UACC-257; > 100 µM (inactive) with BT-549; 24.8 µM (inactive) with OVCAR-3; 11.5 µM (inactive) in the assay with RXF 393; 13.5 µM (inactive) in the assay on EKVX; 5.62 µM (inactive) with KM12. Besides, the GI50 is 16.7 µM (inactive) with HL-60; 9.42 µM (inactive) in the assay with UACC-62; 27.9 µM (inactive) with U-251; 16.1 µM (inactive) in the assay with SF-268; 26.4 µM (inactive) in the assay on 786-0; 18.6 µM (inactive) in the assay on IGROV-1.
For `CCCc1c(O)nc(Nc2nc3ccccc3[nH]2)[nH]c1=O`, the GI50 in the assay on MDA-N, in the assay on OVCAR-4, in the assay on A498, in the assay with OVCAR-8, in the assay on SK-MEL-2 and in the assay on TK-10 was > 100 µM (inactive) throughout. For the same molecule, the GI50 in the assay on NCI-H460, in the assay on UACC-257, with BT-549, with RXF 393, in the assay with EKVX and with KM12 was > 100 µM (inactive) each time. Moreover, the GI50 in the assay with HL-60 was 84.9 µM (inactive); with UACC-62, > 100 µM (inactive); in the assay with U-251 it was > 100 µM (inactive); with SF-268, > 100 µM (inactive); in the assay with 786-0 it was > 100 µM (inactive); with IGROV-1 it was > 100 µM (inactive).
Take `CC(=O)NNC(=S)N/C=C1/C(=O)Oc2ccccc2C1=O`: the GI50 in the assay with MDA-N, in the assay on OVCAR-4, in the assay with A498, with OVCAR-8, in the assay with SK-MEL-2 and in the assay on TK-10 was > 100 µM (inactive) throughout. Besides, the GI50 in the assay on NCI-H460 was > 100 µM (inactive); in the assay with UACC-257, > 100 µM (inactive); with BT-549, > 100 µM (inactive); in the assay with OVCAR-3, > 100 µM (inactive); with RXF 393 it was 0.0703 µM (active); in the assay with KM12 it was > 100 µM (inactive). The GI50 in the assay with HL-60 was > 100 µM (inactive); in the assay with UACC-62, 51.6 µM (inactive); in the assay on U-251 it was > 100 µM (inactive); in the assay on SF-268, > 100 µM (inactive); in the assay on 786-0, > 100 µM (inactive); with IGROV-1 it was > 100 µM (inactive).
Turning to `CC1(C)OC[C@@H](O)[C@H](C#N)CO1`, the GI50 in the assay with MDA-N, in the assay on OVCAR-4, with A498, in the assay with OVCAR-8, with SK-MEL-2 and in the assay with TK-10 was > 100 µM (inactive) in each case. In addition, the GI50 in the assay with NCI-H460, with UACC-257, in the assay with BT-549, with OVCAR-3, in the assay with RXF 393 and in the assay with EKVX was > 100 µM (inactive) throughout. The GI50 in the assay with KM12, in the assay with HL-60, with UACC-62, with U-251, in the assay on SF-268 and in the assay with 786-0 was > 100 µM (inactive) throughout.
With `CC1(C)N=C(N)N=C(N)N1c1cccc(OCc2cccc([N+](=O)[O-])c2)c1`, the GI50 in the assay with MDA-N was 3.29 µM (inactive); with OVCAR-4, 39.6 µM (inactive); with A498 it was 99.5 µM (inactive); in the assay on OVCAR-8, 99.8 µM (inactive); in the assay on SK-MEL-2 it was > 64.3 µM (inactive); in the assay with TK-10 it was 18.7 µM (inactive). The GI50 in the assay with NCI-H460 was 1.6 µM (inactive); in the assay with UACC-257, 4.29 µM (inactive); in the assay on BT-549 it was > 53.1 µM (inactive); with OVCAR-3, 22.9 µM (inactive); in the assay with RXF 393 it was > 100 µM (inactive); with EKVX it was > 78.3 µM (inactive). In addition, the GI50 is 17.1 µM (inactive) in the assay with KM12; 9.95 µM (inactive) with HL-60; 6.11 µM (inactive) with UACC-62; 2.88 µM (inactive) in the assay on U-251; 9.75 µM (inactive) in the assay on SF-268; 5.78 µM (inactive) in the assay with 786-0. The GI50 with IGROV-1 was 7.87 µM (inactive).

By GI50 is commonly meant the concentration at which growth is held to half of that of the control.

(Values after ChEMBL document CHEMBL1201862, “PubChem BioAssay data set” (2004).)
